Results reported in article PMC4992173, “Divergent synthesis and identification of the cellular targets of deoxyelephantopins” (Nature Communications, 2016).

Key:
recombinant IKKβ = recombinant IKKβ (Homo sapiens, UniProt O14920); experiment: Labeling of recombinant IKK-β with probe 24c; type: binding; conditions: 10 µM 24c
[1] = target: T1, Zinc finger protein 346 (ZNF346) (Homo sapiens, UniProt Q9UL40); experiment: In situ competitive profiling in live MCF7 cells (LFQ): ZNF346; type: cell-based; conditions: 4 h, then 10 µM 24c, n=4
T1 construct: 1,522 proteins were enriched from MCF7 cells by 10 μM probe 24c; endogenous in cells; host or cells: MCF7
T1 sequence (Q9UL40 whole entry): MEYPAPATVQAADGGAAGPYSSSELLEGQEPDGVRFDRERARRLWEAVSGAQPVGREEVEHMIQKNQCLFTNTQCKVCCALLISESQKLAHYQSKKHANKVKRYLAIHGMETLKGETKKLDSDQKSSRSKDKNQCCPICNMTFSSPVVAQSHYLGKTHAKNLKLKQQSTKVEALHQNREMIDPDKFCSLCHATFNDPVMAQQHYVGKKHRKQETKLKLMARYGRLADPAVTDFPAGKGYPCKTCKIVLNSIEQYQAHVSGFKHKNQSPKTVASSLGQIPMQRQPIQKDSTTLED
Description: (§1) In our efforts to determine the direct molecular targets of deoxyelephantopin we first performed a gel-based competitive in situ proteomic profiling assay[41] […] While the greater conformational flexibility of probe 24c could potentially lead to more promiscuous target engagement relatively to deoxyelephantopin, it was favoured based on the fact that an alkyne moiety appended to the rigid scaffold of deoxyelephantopin may hinder some of its interactions. MCF7 cells were pretreated with various concentrations of deoxyelephantopin for 4 h, harvested, lysed and the lysates were treated with the fluorogenic probe 24c-Cy3 (10 μM; Supplementary Fig. 10). […] Furthermore, cells were pretreated with 20 μM concentration of deoxyelephantopin or 24c and the proteomic profiles were compared (Fig. 6b, Supplementary Fig. 11). Multiple bands were detected that were equally competed by both DEP and 24c, thus again confirming that 24c can be used as an acceptable clickable analogue of deoxyelephantopin in pulldown assays. Having established the optimal labelling conditions by SDS–PAGE, we next carried out a mass spectrometry-based competitive profiling assay[42] coupled with the method of stable isotope labelling of amino acids in culture (SILAC)[43]. […]
(§2) Figure 6 Proteome-wide identification of deoxyelephantopin targets. […] Quantification was performed using label-free quantification (LFQ) method (n=4). […]

[2] = test system: 11 identified targets in MCF7 cells; experiment: Targeted in situ competitive profiling in live MCF7 cells, all 11 targets; type: cell-based, human; conditions: intact MCF7 cells, 20 µM, 4 h, then 10 µM 24c
Description: as §1, §2

[3] = target: T2, Src substrate cortactin (CTTN) (Homo sapiens, UniProt Q14247); experiment: In situ competitive profiling in live MCF7 cells (LFQ): CTTN; type: cell-based; conditions: protein CTTN, 4 h, then 10 µM 24c, n=4
T2 construct: endogenous in cells; host or cells: MCF7
T2 sequence (Q14247 whole entry): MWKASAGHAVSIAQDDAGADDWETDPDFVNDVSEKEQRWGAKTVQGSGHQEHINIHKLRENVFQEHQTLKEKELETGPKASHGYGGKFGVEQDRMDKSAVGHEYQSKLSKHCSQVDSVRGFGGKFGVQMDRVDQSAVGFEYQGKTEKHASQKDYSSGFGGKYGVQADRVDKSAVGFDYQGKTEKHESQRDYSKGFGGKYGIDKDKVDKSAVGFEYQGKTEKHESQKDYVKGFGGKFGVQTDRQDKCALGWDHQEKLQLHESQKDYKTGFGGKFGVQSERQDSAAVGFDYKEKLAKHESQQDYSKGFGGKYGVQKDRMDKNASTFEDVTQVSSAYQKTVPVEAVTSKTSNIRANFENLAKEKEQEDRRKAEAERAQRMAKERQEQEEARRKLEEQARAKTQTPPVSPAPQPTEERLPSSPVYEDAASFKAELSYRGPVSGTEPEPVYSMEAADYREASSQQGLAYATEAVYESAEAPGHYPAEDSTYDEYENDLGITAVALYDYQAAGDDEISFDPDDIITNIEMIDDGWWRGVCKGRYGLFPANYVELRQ
Description: as §1, §2

Chain of recombinant IKKβ (O14920 whole entry): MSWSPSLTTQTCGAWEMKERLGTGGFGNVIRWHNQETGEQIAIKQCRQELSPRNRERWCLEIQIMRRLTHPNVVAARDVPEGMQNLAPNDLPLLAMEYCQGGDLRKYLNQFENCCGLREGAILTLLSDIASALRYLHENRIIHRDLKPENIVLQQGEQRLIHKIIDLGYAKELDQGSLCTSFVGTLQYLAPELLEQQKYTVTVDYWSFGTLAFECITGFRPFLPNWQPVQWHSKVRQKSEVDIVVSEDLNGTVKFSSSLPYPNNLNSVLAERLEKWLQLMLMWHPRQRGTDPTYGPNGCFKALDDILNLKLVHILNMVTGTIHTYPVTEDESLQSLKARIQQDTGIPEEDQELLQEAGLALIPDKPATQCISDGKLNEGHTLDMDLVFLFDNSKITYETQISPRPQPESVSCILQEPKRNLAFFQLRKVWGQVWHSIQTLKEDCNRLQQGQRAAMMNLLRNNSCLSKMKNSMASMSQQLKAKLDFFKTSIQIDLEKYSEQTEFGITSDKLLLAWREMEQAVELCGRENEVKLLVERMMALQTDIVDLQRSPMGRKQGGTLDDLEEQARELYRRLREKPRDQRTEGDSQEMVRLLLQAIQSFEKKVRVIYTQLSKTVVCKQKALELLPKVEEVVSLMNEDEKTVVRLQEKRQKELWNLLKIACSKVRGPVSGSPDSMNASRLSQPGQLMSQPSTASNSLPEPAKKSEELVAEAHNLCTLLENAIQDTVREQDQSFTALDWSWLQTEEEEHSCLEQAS

Row | Compound | covalent interaction with recombinant IKKβ (recombinant IKKβ) | LFQ ratio 20 µM Deoxyelephantopin/DMSO with 24c [1] | competition of all 11 targets in situ [2] [%] | LFQ ratio 20 µM Deoxyelephantopin/DMSO with 24c [3]
1 | C#CCC[C@H](OC(=O)C(=C)C)[C@H]1C(=C)C(=O)O[C@@H]1c1ccccc1 [24c] | no evidence of covalent interaction |  |  | 
2 | C=C(C)C(=O)O[C@H]1CC2=C[C@@H](C/C(C)=C/[C@H]3OC(=O)C(=C)[C@H]13)OC2=O [deoxyelephantopin] |  | 0.00 | > 70 | 0.22
